Drawing on PubChem BioAssay (NCI), this text covers TGI and GI50 for 14 compounds.

Among the test systems are CAKI-1 renal; MALME-3M melanoma; MCF7 breast; MDA-MB-435; NCI-H460 lung; OVCAR-8 ovarian; SNB-19 CNS; SR leukemia; TK-10 renal; UO-31 renal.
Common to all, as to assay: NCI-60 cell line screen, 48 h

Several values for one entry are separate records, joined by “and”; a condition that tells them apart may be missing. Equal values may be shown once.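 Briefly, cells in 96-well plates were exposed to five compound concentrations for 48 h, and endpoints were estimated by linear interpolation. At the GI50, growth is halved. TGI: concentration producing complete growth inhibition.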

In the case of `COc1ccccc1NS(=O)(=O)c1ccc2ncn(NS(=O)(=O)c3ccc(Cl)cc3)c(=O)c2c1`, the TGI in the experiment with CAKI-1 renal, in the experiment with MALME-3M melanoma, with MCF7 breast, with MDA-MB-435, with NCI-H460 lung and in the experiment with OVCAR-8 ovarian was > 100 µM throughout. The TGI in the experiment on SNB-19 CNS, in the experiment with SR leukemia, in the experiment on TK-10 renal and in the experiment with UO-31 renal was > 100 µM in each case.
Regarding `C=CCC(SC)C1=C(C)C(=O)c2ccccc21` (configuration not stated), the TGI with MALME-3M melanoma, with MCF7 breast, in the experiment with MDA-MB-435, in the experiment with NCI-H460 lung, in the experiment with OVCAR-8 ovarian and in the experiment with SNB-19 CNS was > 10 µM in each case. For the same compound, the TGI in the experiment with SR leukemia, with TK-10 renal and in the experiment with UO-31 renal was > 10 µM in each case.
As to `CC(=O)OCC1OC(N2C(S)=C(C#N)C(c3ccco3)C(C(C)=O)=C2c2ccccc2)C(OC(C)=O)C(OC(C)=O)C1OC(C)=O` (configuration not stated), the TGI with CAKI-1 renal, in the experiment with MALME-3M melanoma, in the experiment with MCF7 breast, with MDA-MB-435, in the experiment with NCI-H460 lung and in the experiment on OVCAR-8 ovarian was > 100 µM throughout. Besides, the TGI with SNB-19 CNS is > 100 µM; in the experiment with SR leukemia, > 100 µM; in the experiment on TK-10 renal, > 100 µM; in the experiment with UO-31 renal, 91.4 µM.
For `CN(C)c1ccc(/C=c2/c3cc([N+](=O)[O-])ccc3n3c2cc(-c2ccccc2)[n+]3C)cc1`, the TGI amounted to 23.4 µM in the experiment with CAKI-1 renal; 1.18 µM with MALME-3M melanoma; 8.07 µM with MCF7 breast; 1.84 µM in the experiment with MDA-MB-435; 11.7 µM with NCI-H460 lung; 27.7 µM in the experiment with OVCAR-8 ovarian. Besides, the TGI with SNB-19 CNS came to 3.84 µM; with SR leukemia it was 3.02 µM; with TK-10 renal it was 9.32 µM; in the experiment on UO-31 renal, 23 µM.
In the case of `CN1C(=O)N(C)C2(CCN(CCCCCCF)CC2)C1=O`, the TGI in the experiment with CAKI-1 renal was > 100 µM; in the experiment on MALME-3M melanoma, > 100 µM; in the experiment on MCF7 breast, > 100 µM; in the experiment on MDA-MB-435, 71.1 µM; in the experiment with OVCAR-8 ovarian, > 100 µM; in the experiment with SNB-19 CNS, > 100 µM. For the same compound, the TGI in the experiment with SR leukemia, in the experiment on TK-10 renal and in the experiment with UO-31 renal was > 100 µM throughout.
As for `COc1cc2c(cc1OCCCCCOc1cc3c(cc1OC)C(=O)N1CCC[C@H]1CN3)N=C[C@@H]1CCCN1C2=O`, the TGI in the experiment with CAKI-1 renal is 44.1 µM; with MALME-3M melanoma, 21.6 µM; in the experiment with MCF7 breast, > 100 µM; with MDA-MB-435, 20.1 µM; in the experiment with NCI-H460 lung, > 100 µM; with OVCAR-8 ovarian, 24.2 µM. Also, the TGI was > 100 µM in the experiment on SNB-19 CNS, 1.11 µM with SR leukemia, 63.3 µM with TK-10 renal and 30.9 µM in the experiment on UO-31 renal.
Take `COc1ccc(N2C(=O)C3CC4=CC(=O)C[C@H]4[C@H]32)cc1` (some centres not stated): the TGI was 87.6 µM with CAKI-1 renal; > 100 µM with MCF7 breast; > 100 µM in the experiment on MDA-MB-435; > 100 µM in the experiment with NCI-H460 lung; > 100 µM in the experiment on OVCAR-8 ovarian; > 100 µM in the experiment on SNB-19 CNS. Further, the TGI in the experiment on SR leukemia, in the experiment on TK-10 renal and with UO-31 renal was > 100 µM each time.
As to `COc1cc2c(c(OC)c1OC)-c1ccc(SC)cc1C(=O)CC2`, the TGI was > 100 µM in the experiment on CAKI-1 renal; > 21.9 µM in the experiment on MALME-3M melanoma; > 100 µM with MCF7 breast; > 100 µM in the experiment with MDA-MB-435; > 32.1 µM in the experiment with NCI-H460 lung; > 100 µM in the experiment with OVCAR-8 ovarian. Further, the TGI in the experiment on SNB-19 CNS, in the experiment on SR leukemia and in the experiment on TK-10 renal was > 100 µM each time.
On to `C#CCOC(=O)C(N)CCSC` (configuration not stated), for which the TGI in the experiment on CAKI-1 renal, with MALME-3M melanoma, with MCF7 breast, in the experiment with MDA-MB-435, in the experiment with OVCAR-8 ovarian and with SR leukemia was > 100 µM in each case. Besides, the TGI with TK-10 renal and in the experiment on UO-31 renal was > 100 µM throughout.
Take `C=CCN1CCC2(CC1)NC(=O)c1ccccc1O2`: the TGI with CAKI-1 renal, in the experiment with MALME-3M melanoma, in the experiment with MCF7 breast, in the experiment on MDA-MB-435, in the experiment with NCI-H460 lung and in the experiment on OVCAR-8 ovarian was > 100 µM in each case. For the same compound, the TGI in the experiment on SNB-19 CNS, in the experiment with SR leukemia, with TK-10 renal and in the experiment on UO-31 renal was > 100 µM each time.
`CC1CC[C@@]2(OC1)OC1C[C@H]3[C@@H]4CCC5CC(O)CC[C@]5(C)[C@H]4C/C(=N\N(C)C)[C@]3(C)C1[C@@H]2C` (some centres not stated): the TGI in the experiment on MALME-3M melanoma is > 100 µM; with MCF7 breast it was > 100 µM; with MDA-MB-435, 58.2 µM; in the experiment on NCI-H460 lung it was > 100 µM; in the experiment on SNB-19 CNS, 88.4 µM; in the experiment with SR leukemia, 60.6 µM. The TGI came out at 86.9 µM in the experiment with TK-10 renal and 90.4 µM in the experiment with UO-31 renal.
In the case of `Cc1sc2nc3n(c(=O)c2c1C)N=C(c1ccc([N+](=O)[O-])cc1)CS3`, the TGI in the experiment with CAKI-1 renal, in the experiment with MALME-3M melanoma, in the experiment on MCF7 breast, with MDA-MB-435, with NCI-H460 lung and in the experiment with OVCAR-8 ovarian was > 100 µM each time. Further, the TGI in the experiment on SR leukemia and with UO-31 renal was > 100 µM in each case.
On to `CC(=O)C1(O)Cc2c(O)c3c(c(O)c2C(OC2CC(N)C(O)C(C)O2)C1)C(=O)c1ccccc1C3=O` (configuration not stated), for which the TGI with MALME-3M melanoma is 0.0666 µM; in the experiment with MCF7 breast, 1.5 µM; in the experiment with MDA-MB-435, 0.389 µM and 0.47 µM; with NCI-H460 lung, 0.0836 µM and 0.0123 µM; in the experiment with OVCAR-8 ovarian, 0.597 µM and 0.817 µM; in the experiment with SNB-19 CNS it was 0.97 µM and 0.156 µM. The TGI is 0.0813 µM in the experiment with SR leukemia; 0.158 µM in the experiment on TK-10 renal; 0.204 µM and < 0.0304 µM in the experiment on UO-31 renal. The GI50 is 67.4 nM with MDA-MB-435, 14.7 nM in the experiment with OVCAR-8 ovarian, < 12.2 nM in the experiment with SNB-19 CNS and < 12.7 nM in the experiment on UO-31 renal.
On to `COC(=O)C(Cc1nc2ccccc2[nH]c1=O)C(=O)C(=O)Nc1cc(C(F)(F)F)ccc1Cl` (configuration not stated), for which the TGI in the experiment with CAKI-1 renal is 33.4 µM; with MALME-3M melanoma, 31.4 µM; in the experiment on MCF7 breast it was 27.4 µM; with MDA-MB-435, > 100 µM; with NCI-H460 lung, 39.9 µM; with OVCAR-8 ovarian it was 30 µM. Moreover, the TGI in the experiment with SR leukemia is > 100 µM; with TK-10 renal, 44 µM; in the experiment with UO-31 renal, 28.9 µM.
